Assay results taken from patent publication US20180333427A1, “ANTI-FATIGUE COMPOSITION AND USE THEREOF” (CHENGZHI LIFE SCIENCE., LTD., priority 2013, published 2018).

System: fatigue mice
Assay: Weight loading swimming test of fatigue mice (Example 1)
Type: in vivo, ICR male mice
Details: for restoration of energy / strength in the state of fatigue: control group glucose 1 g/kg; for swimming time of fatigue mice: intragastric, daily dose in three times, swimming continued for three days, ribose 2.5 g/kg, caffeine 75 mg/kg, ribose 1250 mg/kg+caffeine 40 mg/kg
Description: The mice swim with the load twice every day, respectively in the morning and afternoon. The sum of the swimming times is recorded as the swimming time for one day. The average of the swimming times for the last two days is taken as a reference, and the mice are kept swimming every day until the day in which the swimming time is below 80% of the reference, and that is considered as fatigue. […] The respective agents are given by intragastric administration with a dosage of 0.2 ml/10 g, and the daily dose is given in three times. The mice are administrated with the agents 30 minutes before swimming in the morning and afternoon, respectively, and administrated again when the furs of the mice dry after swimming in the afternoon. The mice are continued to swim for three days under the prior condition as described in Section 1.2. After swimming, the respective agents are continually administered to the mice 3 times/day for 3 days, except those to be sampled immediately, then taken as materials. […] The swimming time for each group on day 0 is set for 1, the swimming time for each group on day 1, 2 and 3 is compared to that on day 0 respectively, and thereby the change rate (%) is obtained.

Row | Compound | anti-fatigue effect (fatigue mice, weight loading swimming, three days) | restoration of energy / strength in the state of fatigue (fatigue mice) | swimming time of fatigue mice
1 | Cn1c(=O)c2c(ncn2C)n(C)c1=O [caffeine] | does not produce sustained anti-fatigue effect | restore some strength in a short time but increase fatigue with the extension of time | shortened with the extension of training time
2 | O=C[C@H](O)[C@H](O)[C@H](O)CO [ribose, D-ribose] | – | restore energy more quickly than the control group | increased with the extension of training time
